Measurements as given in US20020119198A1, “Self-emulsifying drug delivery systems for extremely water-insoluble, lipophilic drugs” (priority 2000, published 2002).

Tests used:
[1] = Solubility of the active agent in the formulation vehicle; assay type: physicochemical
[2] = Solubility of the active agent in a typical aqueous formulation; assay type: physicochemical; conditions: room temperature

## Cc1cc(C)c(C=C2C(=O)Nc3ccccc32)[nH]1 [3-[(2,4-dimethylpyrrol-5-yl)methylene]-2-indolinone]
[1]; vehicle free of polyvinylpyrrolidone
  solubility, drug dissolved in vehicle: about 15 mg/g
[1]; vehicle of the present invention (with polyvinylpyrrolidone)
  solubility, drug dissolved in vehicle: over 30 mg/g
[2]
  solubility in a typical aqueous formulation: approximately 10 nanograms per milliliter
